Measured values: patent US4997926A, “Deaminase-stable anti-retroviral 2-halo-2',3'-dideoxy” (Scripps Clinic and Research Foundation, priority 1987, dated 1991)

Key:
[1] = system: wild type CEM T cells; format: in vitro ADME, human
Experimental: Extracts of wild type CEM cells that had been incubated with 3 uM [8-^3 H]-2-chloro-2',3'-dideoxyadenosine for 4 hours were fractionated by ion exchange high performance liquid chromatography (HPLC). Detected radioactive peaks corresponded to the free deoxynucleoside and to the 5'-mono-, di- and tri-phosphates, respectively. The total intracellular 2-chloro-2',3'-dideoxynucleotide content was 30 pmols/10^8 cells. The identity of the peaks was confirmed by enzymatic dephosphorylation, and reverse phase HPLC in the presence of authentic 2-chloro-2',3'-dideoxyadenosine.
(§1) ^1 Human CEM T cells, or variants deficient in either deoxycytidine
(§2) kinase, or deoxycytidine kinase plus adenosine kinase, were incubated at
(§3) density of 5 × 10^7 cells/ml in medium containing 3 uM [8^3
(§4) H2-chloro-2',3dideoxyadenosine. After 4 hours, the nucleotides in the
(§5) methanolsoluble extracts were determined after separation by HPLC, as
(§6) described in the Materials and Methods.
(§7) The human T lymphoblastoid cell line, CCRF-CEM, and mutants deficient in either deoxycytidine kinase (clone AraC-8D), or deoxycytidine kinase plus adenosine kinase (clone AraC-8DM10-5) were obtained and propagated as described previously [Foley et al., (1965) Cancer, 18:552-529 and Hershfield et al., (1982) J. Biol. Chem., 257:6380-6386]. For metabolic studies, the cells were cultured in RPMI 1640 medium supplemented with 2 mM L-glutamine and 10 percent fetal bovine serum at a density of 2×10^7 cells/ml in the presence of radiolabelled dideoxynucleosides, as indicated earlier. Some cultures were pre-incubatedfor 30 minutes either with 5 uM 2'-deoxycoformycin or 50 uM coformycin. After 4 hours of incubation the cells were harvested by centrifugation.
(§8) The cell pellets were washed with Hank's balanced salt solution at 4 degrees C., and extracted with 1 ml 60 percent methanol/water at -20 degrees C. for 10 minutes. Initial studies included 2',3'-dideoxyadenosine5'-triphosphate as an internal recovery marker. The nucleotides were fractionated by high performance liquid chromatography on an Whatman Partisil-10 SAX column, applying a gradient of zero to 100 percent buffer B in buffer A. Buffer A was 7 mM potassium phosphate pH 3.4. Buffer B was 0.5 M potassium phosphate, pH 3.4, one M KCl. The flow rate was 1.5 ml/minute, 1 minute fractions were collected. Buffer A was used alone for the first ten fractions after which elution with Buffer B began and was continued through fraction thirty, after which the eluting buffer was completely Buffer B. The nucleoside was eluted by about fraction six. The monophosphate eluted between about fractions fifteen and eighteen, the diphosphate between about fractions twenty-seven and thirty-two, and the triphosphate eluted between about fractions fifty-one and about sixty-five.

[2] = system: HIV (strain LAV) in MT-2 cells; experiment: HIV-induced syncytia formation and cytopathic effect in MT-2 T lymphoblasts; format: cell-based
From the text: The anti-HIV activities of the 2-halo-2',3'-dideoxyadenosine derivatives were first assayed in human MT-2 T lymphoblasts, as this system readily permitted a differentiation between anti-retroviral and anti-proliferativeeffects Exposure of the MT-2 T cell line to cell-free HIV led to the formation of syncytia within 4-5 days, and to a parallel decline in cell viability.
The MT-2 human lstoid cell line, which carries the human T cell leukemia virus type I (HTLV-1) genome, was used to assess the cytopathic effects of HIV, and the protective effects of the various nucleosides. […] The formation of syncytia, with resultant cell death, depends upon the expression on the cell-surface of the HIV envelope glycoproteins gp160, gp120, and gp4l, by cells that bear the differentiation antigen CD4 (T4) [Lipson et al., (1986) Nature, 323:725-728].
In the reported studies, the formation of syncytia in the MT-2 cell line (provided by J. Riggs and M. Aschen, State Department of Public Health, Berkelye, CA) was a sensitive and reproducible system to follow both the course of HIV infection and the potential cytotoxic effects of the added nucleosides. HIV (strain LAV) maintained in CEM cell culture was obtained from F. Barre-Sinoussi, J. C. Chermann and L. Montagnier (Institute Pasteur, Paris).
Cell-free virus was prepared by mixing LAV-infected CEM cells with two liters of 2×10^6 cells/ml of uninfected CEM cells at a ratio of 1:20 and incubating at 37 degrees C. for six days at which time, more than 80 percent of the cells expressed the p24 (gag) antigen using mouse monoclonal antibody M33, obtained from F. Vernoese di Marzo and M. Sarngadharan (Litton Bionetics, Rockville, Md.) using an enzyme immunofiltration staining method [Cleveland et al. (1987) J. Clin. Microbiol., 25:416-420]. The cells were centrifuged at 750×g for 10 minutes. The clarified supernatant was then titered by terminal dilution assay in 96 well microtiter plates containing 6×10^4 MT-2 cells per well suspended in a final volume of 200 ul RPMI 1640 medium containing 10 percent fetal bovine serum, 2 mM glutamine and […].
When HIV was added to this microtiter culture system at a multiplicity of infection of 0.1 TCID50 /cell, multinucleated giant cells appeared within 48 hours, and the majority of cells were fused in syncytia structures by day 4. The appearance of giant cells correlated with detectable antigens and RNA of HIV.
For measurement of antiviral activity, different concentrations of the assayed compounds were added to duplicate wells at the time of infection, and the cultures were incubated at 37 degrees C. After 4 and 5 days, the numbers of syncytia per culture were enumerated microscopically.
The results presented herein were confirmed in five separate experiments. Controls containing uninfected and infected cells with and without anti-retroviral nucleosides were included.
The results were expressed in semi-quantitative units that take into account the growth pattern of MT-2, and the ability of the HIV to cause both syncytia formation and cell death. In this unit system, 1 corresponds to 1-3 syncytia per well and no change in cell count compared to control cultures lacking virus; 2 corresponds to 3-10 syncytia per well and up to 20 percent cell death; 3 corresponds to 10-30 syncytia per well and a 20-70 percent drop in cell viability; 4 corresponds to more than 30 syncytia well and at least a 70 percent fall in the viable cell count.

[3] = system: deoxycytidine kinase deficient CEM T cells (clone AraC-8D); format: in vitro ADME, human
Experimental: as §1, §2, §3, §4, §5, §6, §7, §8

[4] = Deoxycytidine kinase deficient CEM, 3 uM, 4 hours

SMILES: Nc1ncnc2c1ncn2[C@H]1CC[C@@H](CO)O1 [2',3'-dideoxyadenosine, reference compound]
- 2',3'-dideoxyadenosine uptake [1]: 20-30 pmols/10^8 cells
- cytopathic effect of HIV / virus-induced cell killing [2]: inhibit the cytopathic effect of HIV
- 2',3'-dideoxyadenosine uptake [3]: 20-30 pmols/10^8 cells

SMILES: Nc1nc(Cl)nc2c1ncn2[C@H]1CC[C@@H](CO)O1 [2-chloro-2',3'-dideoxyadenosine]
- intracellular dideoxynucleotide content after 4 hours ([1]; CEM 2 × 10^7 cells/ml, 37 degrees C., 3 uM 2-Cl-ddA or 2 uM ddA): ~30 pmols/10^8 cells
- Nucleotide Formed, Diphosphate ([1]; Wild Type CEM, 3 uM, 4 hours): 2.8 pmols/10^8 cells/4 hrs
- Nucleotide Formed, Triphosphate ([1]; Wild Type CEM, 3 uM, 4 hours): 24.3 pmols/10^8 cells/4 hrs
- total intracellular 2-chloro-2',3'-dideoxynucleotide content ([1]; Wild Type CEM, 3 uM, 4 hours): 30 pmols/10^8 cells
- Nucleotide Formed, Monophosphate ([1]; Wild Type CEM, 3 uM, 4 hours, 5 × 10^7 cells/ml): 3.0 pmols/10^8 cells/4 hrs
- HIV-induced syncytia formation ([2]; 10 uM): blocked syncytia formation
- Nucleotide Formed, Diphosphate [3, 4]: 0.8 pmols/10^8 cells/4 hrs
- Nucleotide Formed, Monophosphate [3, 4]: 1.7 pmols/10^8 cells/4 hrs
- Nucleotide Formed, Triphosphate [3, 4]: 3.4 pmols/10^8 cells/4 hrs
- accumulated phosphates relative to wild type CEM cells ([3]; deoxycytidine kinase deficient CEM variant, same culture conditions): about 20%
